# Molecular target: T1, PDE 4B (Homo sapiens, UniProt Q07343)
# T1 construct: gene PDE4B
# Test: PDE4B enzyme inhibition assay (according to Schulz et al.)
# Format: biochemical
# T1 sequence (Q07343 whole entry): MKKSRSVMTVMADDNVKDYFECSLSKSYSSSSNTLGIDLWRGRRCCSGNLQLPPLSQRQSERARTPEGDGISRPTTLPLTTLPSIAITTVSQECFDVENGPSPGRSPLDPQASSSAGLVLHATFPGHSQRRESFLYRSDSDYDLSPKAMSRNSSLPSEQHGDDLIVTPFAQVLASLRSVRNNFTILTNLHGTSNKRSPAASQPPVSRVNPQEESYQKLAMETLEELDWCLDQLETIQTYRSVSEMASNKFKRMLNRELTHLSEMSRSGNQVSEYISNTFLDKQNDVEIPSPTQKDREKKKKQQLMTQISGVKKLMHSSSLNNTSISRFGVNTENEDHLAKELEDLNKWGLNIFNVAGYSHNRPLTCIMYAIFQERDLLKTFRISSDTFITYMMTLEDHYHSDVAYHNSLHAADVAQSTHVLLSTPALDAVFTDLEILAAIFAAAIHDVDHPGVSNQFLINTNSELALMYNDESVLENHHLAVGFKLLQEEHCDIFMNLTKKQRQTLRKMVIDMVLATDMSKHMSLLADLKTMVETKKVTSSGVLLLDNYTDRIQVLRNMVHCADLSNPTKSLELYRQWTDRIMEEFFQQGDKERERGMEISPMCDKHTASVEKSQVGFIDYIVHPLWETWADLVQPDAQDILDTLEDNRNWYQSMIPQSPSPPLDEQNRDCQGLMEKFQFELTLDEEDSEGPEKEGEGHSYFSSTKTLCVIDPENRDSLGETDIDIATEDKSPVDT
row,IC50 [µM],SMILES
1,12.2,"CCC(C)CCC[C@@H](C(=O)OC)[C@H](O)c1cccc2nc3c(C(=O)O)cccc3nc12 (stereo partly drawn) [compound 3, Streptophenazine K]"
2,12,"COC(=O)c1cccc2nc3c(C(O)C(CCCC(C)C(C)O)C(=O)OC)cccc3nc12 (stereo not drawn) [compound 2, Streptophenazine J]"
3,5.2,"CCC(C)CCC[C@@H](C(=O)OC)[C@H](O)c1cccc2nc3c(C(=O)OC)cccc3nc12 (stereo partly drawn) [compound 9, Streptophenazine G]"

# Reference: article PMC4012441, “Nature’s Lab for Derivatization: New and Revised Structures of a Variety of Streptophenazines Produced by a Sponge-Derived Streptomyces Strain” (Marine Drugs, 2014)
